{"source": "patent EP0366273A1", "about": "“Benzopyran derivatives with smooth muscle relaxant activity” (BEECHAM GROUP PLC, priority 1988, dated 1990)", "key": {"[1]": {"tested_on": "guinea pig tracheal spiral preparations", "experiment": "Bronchodilation in vitro; guinea pig tracheal spiral preparations", "format": "cell-based", "conditions": "relaxation relative to total relaxation evoked by 10⁻³M isoprenaline", "protocol": "(a) Bronchodilation in vitro; guinea pig tracheal spiral preparations.\nMale guinea pigs (300-600g) were stunned by a blow to the head and bled from the carotid artery. The trachea was exposed, dissected free of connective tissue, and transferred to oxygenated krebs solution at 37°C. Next, spirals (2 per trachea) were prepared by cutting the whole trachea spirally along its longitudinal axis and then dividing this spiral lengthwise. Each preparation was mounted, using silk thread, in a 10ml organ bath filled with krebs solution at 37°C and bubbled with 5% CO₂ with O₂. The resting tension of the preparations was set at 2g and changes in muscle tension were monitored isometrically by means of a UFI (2oz) force and displacement transducer (Ormed Ltd) connected to a Linseis pen recorder. […] During this equilibration period the preparations were washed by upward displacement at 15 minute intervals and, if necessary, the resting tension was readjusted to 2g using a mechanical micromanipulator system.\nOnce a steady resting tension had been obtained, the preparations were dosed cumulatively with the test compound (10⁻⁸-2x10⁻⁵M), and finally a maximum relaxation achieved by addition of 10⁻³M isoprenaline. The fall in tension evoked by the test compound was expressed as a percentage of the total relaxation evoked in the presence of 10⁻³M isoprenaline. […]"}, "[2]": {"tested_on": "Spontaneously hypertensive rats", "experiment": "Blood pressure lowering activity, tail cuff method", "format": "in vivo", "conditions": "dose 1 mg/kg, initial blood pressure 265 ± 8 mmHg, 6 rats", "protocol": "Blood Pressure Lowering Activity\nSystolic blood pressures were recorded by a modification of the tail cuff method described by I.M. Claxton, M.G. Palfreyman, R.H. Poyser, R.L. Whiting, European Journal of Pharmacology, 37, 179 (1976). A W+W BP recorder, model 8005 was used to display pulses.Prior to all measurements rats were placed in a heated environment (33.5 ± 0.5°C) before transfer to a restraining cage. Each determination of blood pressure was the mean of at least 6 readings. Spontaneously hypertensive rats (ages 12-18 weeks) with systolic blood pressures >180 mmHg were considered hypertensive."}}}
{"molecule": "CC1(C)Oc2ccc(C#N)cc2C(N2CCCC2=O)C1=O", "note": "(centres unmarked) [Example 1, 6-Cyano-3,4-dihydro-2,2 dimethyl-4-(2-oxopyrrolidin-1-yl)-2H-1-benzopyran-3-one]", "values": [{"measurement": "Intrinsic Activity", "setting": "[1]", "value": 0.89}, {"measurement": "% Change in Systolic Blood Pressure", "setting": "[2]; 1 h post dose", "value": "-27 ± 5 (6 rats) %"}, {"measurement": "% Change in Systolic Blood Pressure", "setting": "[2]; 2 h post dose", "value": "-24 ± 1 (6 rats) %"}, {"measurement": "% Change in Systolic Blood Pressure", "setting": "[2]; 4 h post dose", "value": "-19 ± 6 (6 rats) %"}, {"measurement": "% Change in Systolic Blood Pressure", "setting": "[2]; 6 h post dose", "value": "-25 ± 5 (6 rats) %"}]}
